Tests used:
Assay in all cases: In vitro antibacterial MIC, broth microdilution
P. aeruginosa 799/61 = format: cell-based, Pseudomonas aeruginosa; settings: P. aeruginosa 799/61 (sensitive strain); Mueller Hinton broth, 20 h at 35° C.
Procedure: (§1) The compounds of the invention were evaluated against various bacterial strains by determining the minimum inhibitory concentration (MIC) of each compound with respect to each strain. The MIC is defined as the lowest concentration of drug which prevents the growth of the bacteria. A variety of different Gram-negative and Gram-positive bacterial species and strains can be selected for assay purposes depending on the particular desired application. The susceptibility assay is performed in Mueller Hinton broth using a microdilution technique in a final test volume of 100 μl using 96-well microtiter plates. Test compounds are prepared in Mueller-Hinton broth at a concentration equivalent to 2-fold the desired final concentration. The bacterial inoculi are prepared as follow. Bacterial strains are grown overnight at 35° C. on Tryptic Soy agar (TSA). For each strain, one isolated colony is used to inoculate a volume of 8 ml of Mueller Hinton broth and these cultures are incubated overnight (20 h) at 35° C. in a shaking incubator. Culture are then diluted 1:10 and allow to grow for an additional one hour at 35° C. in a shaking incubator. The inoculum used for the susceptibility assay is prepared by diluting the early log-phase (1 h) culture 1:2000 with fresh Mueller Hinton broth. A 50 μl volume of the inoculi, and a 50 μl solution of the test compound prepared as described above is added to each well. This procedure results in an inoculum of approximately 5×10^5 CFU/ml. After incubation for 20 h at 35° C., the absorbance of the cultures in each is read, e.g., using the ThermoMax microtiter plate reader (Molecular Devices) at 650 nm. The MIC is defined as the lowest concentration of compounds which prevents growth of the microorganism and therefore results in a final absorbance equal to that of the drug-free (e.g., test compound free) control.

P. aeruginosa ATCC 27853 = format: cell-based, Pseudomonas aeruginosa; settings: Mueller Hinton broth, 20 h at 35° C.
Procedure: as §1

P. aeruginosa UPA res. = format: cell-based, Pseudomonas aeruginosa; settings: Mueller Hinton broth, 20 h at 35° C.
Procedure: as §1

[1] = test system: X. maltophilia ATCC 13637; format: cell-based; settings: Mueller Hinton broth, 20 h at 35° C.
Procedure: as §1

[2] = test system: S. epidermidis ATCC 31432; format: cell-based; settings: Mueller Hinton broth, 20 h at 35° C.
Procedure: as §1

E. coli ATCC 25922 = format: cell-based; settings: Mueller Hinton broth, 20 h at 35° C.
Procedure: as §1

E. faecalis ATCC 29212 = format: cell-based; settings: Mueller Hinton broth, 20 h at 35° C.
Procedure: as §1

S. aureus ATCC 29213 = format: cell-based; settings: Mueller Hinton broth, 20 h at 35° C.
Procedure: as §1

Compound	Minimal Inhibitory Concentration, MIC (P. aeruginosa 799/61)	Minimal Inhibitory Concentration, MIC (P. aeruginosa ATCC 27853)	Minimal Inhibitory Concentration, MIC (P. aeruginosa UPA res.)	Minimal Inhibitory Concentration, MIC [1]	Minimal Inhibitory Concentration, MIC [2]	Minimal Inhibitory Concentration, MIC (E. coli ATCC 25922)	Minimal Inhibitory Concentration, MIC (E. faecalis ATCC 29212)	Minimal Inhibitory Concentration, MIC (S. aureus ATCC 29213)
C[C@H](N)C(=O)N[C@@H](Cc1cccc(O)c1)C(=O)N(C)[C@@H](C)[C@H](NC(=O)[C@H](C)NC(=O)N[C@@H](Cc1c[nH]c2ccccc12)C(=O)O)C(=O)N/C=C1/C[C@@H](O)[C@H](n2ccc(=O)[nH]c2=O)O1 [Pacidamycin-1, pacidamycin-1, reference compound]	1 mg/L	4 mg/L	> 250 mg/L	> 250 mg/L	> 250 mg/L	> 250 mg/L	64 mg/L	> 250 mg/L
C[C@H](NC(=O)N[C@@H](Cc1c[nH]c2ccccc12)C(=O)O)C(=O)N[C@H](C(=O)N/C=C1/C[C@@H](O)[C@H](n2ccc(=O)[nH]c2=O)O1)[C@H](C)N(C)C(=O)[C@@H](N)Cc1cccc(O)c1 [Pacidamycin-4, pacidamycin-4, reference compound]	2 mg/L	16 mg/L	> 250 mg/L		> 250 mg/L	64 mg/L	64 mg/L	> 250 mg/L
C[C@H](N)C(=O)N(C)[C@@H](C)[C@H](NC(=O)[C@H](C)NC(=O)N[C@@H](Cc1c[nH]c2ccccc12)C(=O)O)C(=O)N/C=C1/C[C@@H](O)[C@H](n2ccc(=O)[nH]c2=O)O1 [Pacidamycin-D, pacidamycin-D]	4 mg/L	16 mg/L	> 256 mg/L					
pacidamycin-4N	4 mg/L	64 mg/L	> 256 mg/L					
pacidamycin-5N	64 mg/L	> 500 mg/L	> 500 mg/L	> 500 mg/L	> 500 mg/L	> 500 mg/L	> 500 mg/L	> 500 mg/L
pacidamycin-5T	125 mg/L	> 500 mg/L	> 500 mg/L	> 500 mg/L	> 500 mg/L	> 500 mg/L	> 500 mg/L	> 500 mg/L

From patent publication US6228842A, “Pacidamycins produced by Streptomyces coeruleorubidus” (Microcide Pharmaceuticals, Inc., priority 1998, dated 2001)
